The source of these data is PubChem BioAssay (NCI).

“And” between values parts separate entries of the source, which are not always exact repeats. Equal values may be shown once.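 Each compound was tested at five concentrations against cells in 96-well plates for 48 hours. Abbreviation: GI50, concentration required for 50% inhibition of growth. TGI: total growth inhibition.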

Common to all, as to experiment: inhibition of tumour cell growth, NCI panel, 48 h
Experiment [1] has as its system COLO 205 colon.
For experiment [2], the system named is HCT-116 colon.
Experiment [3] relates to HCT-15 colon.
In experiment [4] the test system is K-562 leukemia.
Experiment [5] has as its system M14 melanoma.
The subject of experiment [6] is MDA-MB-435.
For experiment [7], the system named is NCI-H226 lung.
Experiment [8] deals with NCI-H460 lung.
Experiment [9] deals with OVCAR-3 ovarian.
For experiment [10], the system named is SW-620 colon.

`CCC1=C(C)/C(=C/c2[nH]c(C)c(C(=O)CCCCC(=O)OC)c2C)N=C1c1ccc[nH]1`: the GI50 in experiment [1] is 12.6 µM; in experiment [2], 7.37 µM; in [3] it was 15.4 µM; in [4], 3.47 µM; in experiment [5] it was 18.7 µM; in experiment [6], 10.4 µM. Besides, the GI50 in [7] is 17.6 µM; in experiment [8] it was 37.6 µM; in experiment [9] it was 3.64 µM; in [10], 2.18 µM. In addition, the TGI is more than 100 µM in [1]; more than 50.1 µM in [2]; 66.8 µM in [3]; 16.7 µM in [4]; 58.8 µM in [5]; 46.1 µM in [6]. Further, the TGI in experiment [7] is 51.3 µM; in [8] it was more than 100 µM; in experiment [9], 18.5 µM; in experiment [10], 4.82 µM.
Turning to `Oc1ccc(C(c2ccccc2)(c2ccccc2)c2ccccc2)cc1`, the GI50 is 15.5 µM in [1]; 12.9 µM in experiment [2]; 27.5 µM in [3]; 24.9 µM in [4]; 15.6 µM in experiment [5]; 19.9 µM in experiment [6]. In addition, the GI50 in experiment [7] is 19.4 µM; in experiment [8], 15.3 µM; in [9], 16.6 µM; in experiment [10], 22.4 µM. The TGI is 29.8 µM in experiment [1]; 26.1 µM in experiment [2]; more than 100 µM in [3]; 61.2 µM in experiment [4]; 30.3 µM in experiment [5]; 38.3 µM in experiment [6]. Further, the TGI in experiment [7] was determined as 37.6 µM; in experiment [8], 48.1 µM; in experiment [9] it was 37.6 µM; in experiment [10] it was 66.1 µM.
As for `CCNC(=O)C[C@@H]1N=C(c2ccc(Cl)cc2)c2cc(OC)ccc2-n2c(C)nnc21`, the GI50 in [1] was 0.994 µM; in [2] it was 5.73 µM; in experiment [3], 3.77 µM; in [4] it was 4.18 µM; in [5], 2.02 µM; in experiment [6], 1.75 µM. The GI50 in [7] is more than 32.8 µM; in [8], more than 100 µM; in experiment [9], 6.29 µM; in experiment [10], more than 31 µM. The TGI in [1], in experiment [2], in experiment [3], in experiment [4], in [5] and in experiment [6] was more than 100 µM throughout. The TGI in [7], in experiment [8], in experiment [9] and in experiment [10] was more than 100 µM throughout.
Consider `COc1ccc(C(=O)/C=C/c2ccc(O)c(O)c2F)c(OC)c1`, for which the GI50 in experiment [1] was 12.9 µM; in experiment [2], 2.66 µM; in [3], 0.444 µM; in experiment [6], 2.51 µM; in [9], 2.63 µM. Also, the TGI is 22.1 µM and 27.2 µM in experiment [1]; 14 µM and 10 µM in [2]; 13.8 µM and 29.3 µM in [3]; 75 µM and 18.1 µM in [4]; 16.7 µM and 28 µM in experiment [5]; 75 µM and 44.1 µM in [6]. Besides, the TGI in experiment [7] is 37.1 µM and 46.3 µM; in [8], 13 µM and 15.9 µM; in experiment [10], 75 µM and 25.5 µM.
As for `COc1cc2oc(=O)cc(C)c2cc1[N+](=O)[O-]`, the TGI in experiment [1] was more than 60.6 µM; in [2], 32.3 µM; in experiment [3] it was 44.4 µM; in [4] it was more than 100 µM; in experiment [5] it was 37.9 µM; in experiment [6], 46.8 µM. Moreover, the TGI in experiment [7] is 26.9 µM; in [8], more than 100 µM; in experiment [9], 64.1 µM; in experiment [10] it was more than 64.1 µM.
Take `S=CN1CCCCC1`: the TGI in experiment [1], in experiment [2], in [3], in [4], in experiment [5] and in experiment [6] was more than 100 µM each time. In addition, the TGI in [7], in experiment [8], in [9] and in experiment [10] was more than 100 µM throughout.
Regarding `CCn1c(=O)c(-c2ccn[nH]2)cc2c(C)nc(N)nc21`, the GI50 in [1] was 1.78 µM; in [2] it was 2.36 µM; in [3], 2.08 µM; in [4], 14.7 µM; in [5], 1.23 µM; in experiment [6], 1.69 µM. Moreover, the GI50 in experiment [7] is 2.41 µM; in [8], 1.4 µM; in experiment [9], 1.15 µM; in experiment [10] it was 2.85 µM. Further, the TGI in experiment [1] is 10.4 µM; in experiment [2] it was more than 100 µM; in experiment [3], more than 100 µM; in [4] it was more than 100 µM; in [5], 30.6 µM; in experiment [6] it was more than 100 µM. The TGI in experiment [7], in experiment [8], in [9] and in experiment [10] was more than 100 µM each time.
As for `CC(O)C1OC(O)C2OC(C)(C)OC12` (stereo not drawn), the TGI in experiment [1], in experiment [2], in [3], in [4], in [5] and in experiment [6] was more than 100 µM each time. Also, the TGI in [7], in [8], in experiment [9] and in experiment [10] was more than 100 µM in each case.
For the compound `CC(C)C[C@@H](NC(=O)[C@@H](Cc1ccccc1)NC(=O)c1cnccn1)B1O[C@H]2[C@H](O)[C@@H](C(=O)NCCCC[C@@H]3NC(=O)[C@@H](Cc4ccccc4)NC(=O)[C@H](CC(=O)O)NC(=O)CNC(=O)[C@H](CCCN=C(N)N)NC3=O)O[C@@H](CN)[C@H]2O1`, the GI50 in experiment [1] was 0.0262 µM and 0.005 µM; in experiment [2] it was 0.00339 µM and 0.005 µM; in experiment [3], 0.0113 µM and 0.00703 µM; in experiment [4] it was 0.0088 µM and 0.005 µM; in experiment [5] it was 0.00392 µM and 0.005 µM; in [6] it was 0.00287 µM and < 0.005 µM. In addition, the GI50 in experiment [7] is 0.00278 µM; in experiment [8], 0.0344 µM and 0.0179 µM; in [9], 0.00339 µM and 0.005 µM; in [10], 0.00454 µM and 0.005 µM. Further, the TGI was 0.373 µM and 0.119 µM in experiment [1]; 0.0182 µM and 0.0103 µM in experiment [2]; 0.0659 µM and 0.0376 µM in [3]; 0.116 µM and 0.0141 µM in experiment [5]; 0.00891 µM and < 0.005 µM in experiment [6]; 0.0077 µM in experiment [7]. Also, the TGI in experiment [8] was 0.135 µM and 0.185 µM; in experiment [9] it was 0.0106 µM and 0.0104 µM; in [10], 0.239 µM and 0.652 µM.
Consider `CN(C)CCCCN1CCc2c(n(C)c3ccccc23)C1=O`, for which the TGI is 61.7 µM and 33 µM in [1]; 75.6 µM and 45.1 µM in experiment [2]; 54.9 µM and 58.3 µM in [3]; 51.9 µM and > 59.4 µM in experiment [4]; 36.8 µM and 34 µM in experiment [5]; 33.9 µM and 35 µM in [6]. The TGI in experiment [7] is more than 80.5 µM; in experiment [8] it was > 87.1 µM and 49.8 µM; in experiment [9] it was more than 100 µM; in experiment [10], > 81.6 µM and 63.9 µM. In addition, in experiment [8], the GI50 is 54.6 µM and 24.2 µM.
Take `Nc1c(C(=O)Nc2ccccc2)sc2nc3c(cc12)CCCCCC3`: the GI50 was 0.307 µM in [1]; 0.328 µM in experiment [2]; 0.314 µM in experiment [3]; 0.307 µM in [4]; 0.233 µM in [5]; 0.068 µM in experiment [6]. In addition, the GI50 in [7] was 0.652 µM; in experiment [8], 0.352 µM; in [9], 0.319 µM; in experiment [10] it was 0.36 µM. In addition, the TGI in experiment [1] is 1.48 µM; in experiment [2] it was 4.85 µM; in experiment [3], 14 µM; in experiment [4], more than 41.3 µM; in experiment [5] it was 3.15 µM; in [6], 0.266 µM. For the same compound, the TGI in [7] is 12.7 µM; in [8] it was 3.91 µM; in experiment [9] it was 1.07 µM; in experiment [10], 50.9 µM.
For the compound `COc1ccc(C(=O)Cn2c(C(=O)c3ccc(OC)cc3)nc3ccccc32)cc1`, the GI50 is 2.38 µM in experiment [1]; 2.36 µM in experiment [2]; 1.21 µM in experiment [3]; 0.483 µM in experiment [4]; 1.59 µM in experiment [5]; 0.284 µM in experiment [6]. The GI50 was more than 28.5 µM in experiment [7], 3.73 µM in experiment [8], 2.03 µM in experiment [9] and 0.816 µM in experiment [10]. Besides, the TGI in experiment [1] was 8.21 µM; in experiment [2] it was more than 100 µM; in experiment [3], more than 100 µM; in [4], more than 100 µM; in experiment [5], more than 100 µM; in experiment [6], more than 34.4 µM. In addition, the TGI in [7], in experiment [8], in [9] and in experiment [10] was more than 100 µM throughout.
Turning to `O=C(Nc1ccc(S(=O)(=O)Nc2nccs2)cc1)c1cccnc1Nc1cccc(Cl)c1`, the GI50 in [1] was 18 µM; in experiment [2], 12.2 µM; in experiment [3], 13.5 µM; in [4] it was 10.4 µM; in experiment [5] it was 15.7 µM; in [6], 14.3 µM. The GI50 in [7] is 21.9 µM; in experiment [8] it was 16 µM; in experiment [9], 13.1 µM; in experiment [10], 14.2 µM. The TGI in experiment [1] is 33.2 µM; in [2], 25.2 µM; in [3], 27.5 µM; in [4] it was 41.1 µM; in [5], 34.9 µM; in [6], 33.4 µM. Further, the TGI in experiment [7] turned out to be 98.7 µM; in experiment [8] it was 32.6 µM; in experiment [9], 27.4 µM; in [10], 28.7 µM.
In the case of `O=C1c2ccccc2-c2c1c1ccccc1c(=O)n2CCCNCCCn1c2c(c3ccccc3c1=O)C(=O)c1ccccc1-2`, the GI50 in [1] was 10.6 µM; in [2], 1.75 µM; in experiment [3], 1.03 µM; in experiment [4] it was 4.07 µM; in experiment [5], 9.15 µM; in experiment [6], 9.34 µM. In addition, the GI50 in [7] was 4.42 µM; in [8], 2.31 µM; in experiment [9] it was 5.42 µM; in experiment [10] it was 0.852 µM. Besides, the TGI in experiment [1] is more than 31.1 µM; in experiment [2], more than 28.9 µM; in experiment [3], 3.81 µM; in experiment [5] it was 30.4 µM; in [6], 22.9 µM; in experiment [7], 13.9 µM. In addition, the results for the TGI in experiment [8], in experiment [9] and in experiment [10] were more than 17.7 µM, 16.5 µM and more than 12.5 µM, respectively.
On to `Cc1cc2c(c3c1c1ccccc1n3C)C(=O)C=CC2=O`, for which the TGI in [1] is more than 100 µM; in experiment [2] it was 43.8 µM; in experiment [3], 36.5 µM; in experiment [4] it was more than 54 µM; in experiment [5], 88 µM; in experiment [6], more than 100 µM. Further, the TGI in experiment [7] is more than 100 µM; in experiment [8], more than 100 µM; in experiment [9] it was 22.9 µM; in experiment [10] it was 28.7 µM.
